Measured values: patent US20220135591A1, “HETEROCYCLIC COMPOUNDS AS INHIBITORS OF MONOACYLGLYCEROL LIPASE (MAGL)” (Hoffmann-La Roche Inc., priority 2019, published 2022)

Target: T1, MAGL (recombinant wild-type) (Homo sapiens, UniProt Q99685)
T1 sequence (Q99685 1-303): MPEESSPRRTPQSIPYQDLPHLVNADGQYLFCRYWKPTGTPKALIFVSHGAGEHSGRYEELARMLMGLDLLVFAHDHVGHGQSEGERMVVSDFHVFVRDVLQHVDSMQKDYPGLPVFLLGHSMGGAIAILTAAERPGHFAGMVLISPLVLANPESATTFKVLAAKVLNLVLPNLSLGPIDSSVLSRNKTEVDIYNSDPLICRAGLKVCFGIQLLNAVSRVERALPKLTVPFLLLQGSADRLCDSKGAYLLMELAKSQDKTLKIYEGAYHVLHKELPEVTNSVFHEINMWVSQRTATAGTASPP
Experiment: 4-NPA assay: MAGL inhibitory activity by hydrolysis of 4-nitrophenylacetate, absorbance at 405 nm
Type: biochemical
Conditions: 4-NPA assay (values without footnote [b])
In short: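 Final assay: 1 nM MAGL and 300 μM 4-nitrophenylacetate in 50 mM Tris, 1 mM EDTA, at RT. Compounds (25 μM–1.7 nM, 3-fold steps) were preincubated 15 min with enzyme. A405 was read 5 min after substrate addition and again after 80 min; activity was taken as the difference between reads.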

Compound | IC50 [nM]
CC(C)(C)c1ncn(-c2ccc(C(=O)N3CCN(c4nc5nc(Cl)ccc5o4)CC3)cc2)n1 [Example 72, [4-(3-tert-butyl-1,2,4-triazol-1-yl)phenyl]-[4-(5-chlorooxazolo[4,5-b]pyridin-2-yl)piperazin-1-yl]methanone] | 27
Cn1c(CC(C)(C)C)nnc1-c1ccc(C(=O)N2CCN(c3nc4nc(Cl)ccc4o3)CC2)cc1 [Example 73, [4-(5-chlorooxazolo[4,5-b]pyridin-2-yl)piperazin--yl]-[4-[5-(2,2-dimethylpropyl)-4-methyl-1,2,4-triazol-3-yl]phenyl]methanone] | 409
Cc1ccc2oc(N3CCN(C(=O)c4cnc(OCC5(C)CC5)c(C)c4)CC3)nc2n1 [Example 142, (5-methyl-6-((1-methylcyclopropyl)methoxy)pyridin-3-yl)(4-(5-methyloxazolo[4,5-b]pyridin-2-yl)piperazin-1-yl)methanone] | 106
Cc1ccc2oc(N3CCN(C(=O)c4cnc(OCC5(C(F)(F)F)CC5)c(C)c4)CC3)nc2n1 [Example 143, (5-methyl-6-((1-(trifluoromethyl)cyclopropyl)methoxy)pyridin-3-yl)(4-(5-methyloxazolo[4,5-b]pyridin-2-yl)piperazin-1-yl)methanone] | 77
O=C(c1cnc(OCC2(C(F)(F)F)CC2)c(F)c1)N1CCN(c2nc3nc(Cl)ccc3o2)CC1 [Example 144, (4-(5-chlorooxazolo[4,5-b]pyridin-2-yl)piperazin-1-yl)(5-fluoro-6-((1-(trifluoromethyl)cyclopropyl)methoxy)pyridin-3-yl)methanone] | 105
CC1(COc2ncc(C(=O)N3CCN(c4nc5nc(Cl)ccc5o4)CC3)cc2F)CC1 [Example 145, (4-(5-chlorooxazolo[4,5-b]pyridin-2-yl)piperazin-1-yl)(5-fluoro-6-((1-methylcyclopropyl)methoxy)pyridin-3-yl)methanone] | 216
Cc1ccc2oc(N3CCN(C(=O)c4cnc(OCC5(C)CC5)c(Cl)c4)CC3)nc2n1 [Example 146, (5-chloro-6-((1-methylcyclopropyl)methoxy)pyridin-3-yl)(4-(5-methyloxazolo[4,5-b]pyridin-2-yl)piperazin-1-yl)methanone] | 135
Cc1ccc2oc(N3CCN(C(=O)c4cnc(OCC5(C(F)(F)F)CC5)c(Cl)c4)CC3)nc2n1 [Example 147, (5-chloro-6-((1-(trifluoromethyl)cyclopropyl)methoxy)pyridin-3-yl)(4-(5-methyloxazolo[4,5-b]pyridin-2-yl)piperazin-1-yl)methanone] | 128
Cc1ccc2oc(N3CCN(C(=O)c4cc(Cl)cc(N5CCS(=O)(=O)CC5)c4)CC3)nc2n1 [Example 175, [3-chloro-5-(1,1-dioxo-1,4-thiazinan-4-yl)phenyl]-[4-(5-methyl-[1,3]oxazolo[4,5-b]pyridin-2-yl)piperazin-1-yl]methanone] | 1520
CC(=O)N1CCN(c2cc(Cl)cc(C(=O)N3CCN(c4nc5nc(C)ccc5o4)CC3)c2)CC1 [Example 176, 1-[4-[3-chloro-5-[4-(5-methyl-[1,3]oxazolo[4,5-b]pyridin-2-yl)piperazine-1-carbonyl]phenyl]piperazin-1-yl]ethanone] | 4150
Cc1ccc2oc(N3CCN(C(=O)c4cc(Cl)cc(N5CCC(F)(F)CC5)c4)CC3)nc2n1 [Example 177, [3-chloro-5-(4,4-difluoropiperidin-1-yl)phenyl]-[4-(5-methyl-[1,3]oxazolo[4,5-b]pyridin-2-yl)piperazin-1-yl]methanone] | 3160
Cc1ccc2oc(N3CCN(C(=O)c4cc(Cl)cc(N5CCC(CO)CC5)c4)CC3)nc2n1 [Example 178, [3-chloro-5-[4-(hydroxymethyl)piperidin-1-yl]phenyl]-[4-(5-methyl-[1,3]oxazolo[4,5-b]pyridin-2-yl)piperazin-1-yl]methanone] | 2490
Cc1ccc2oc(N3CCN(C(=O)c4cc(Cl)cc(N5CC6(CC(O)C6)C5)c4)CC3)nc2n1 [Example 179, [3-chloro-5-(6-hydroxy-2-azaspiro[3.3]heptan-2-yl)phenyl]-[4-(5-methyl-[1,3]oxazolo[4,5-b]pyridin-2-yl)piperazin-1-yl]methanone] | 3940
Cc1ccc2oc(N3CCN(C(=O)c4ccc(N5CC6(CCCC6)C5)c(-c5ncc[nH]5)c4)CC3)nc2n1 [Example 180, [4-(2-azaspiro[3.4]octan-2-yl)-3-(1H-imidazol-2-yl)phenyl]-[4-(5-methyl-[1,3]oxazolo[4,5-b]pyridin-2-yl)piperazin-1-yl]methanone] | 810
Cc1ccc2oc(N3CCN(C(=O)c4cc(Cl)cc(-c5ccc(CO)cc5)c4)CC3)nc2n1 [Example 181, [3-chloro-5-[4-(hydroxymethyl)phenyl]phenyl]-[4-(5-methyl-[1,3]oxazolo[4,5-b]pyridin-2-yl)piperazin-1-yl]methanone] | 180
Cc1ccc2oc(N3CCN(C(=O)c4cc(OCCC(F)(F)F)cc(-c5ccc(CO)cc5)c4)CC3)nc2n1 [Example 182, [3-[4-(hydroxymethyl)phenyl]-5-(3,3,3-trifluoropropoxy)phenyl]-[4-(5-methyl-[1,3]oxazolo[4,5-b]pyridin-2-yl)piperazin-1-yl]methanone] | 379
Cc1ccc2oc(N3CCN(C(=O)c4ccc(OCC5(C(F)(F)F)CC5)c(-c5ccc(CO)cc5)c4)CC3)nc2n1 [Example 183, [3-[4-(hydroxymethyl)phenyl]-4-[[1-(trifluoromethyl)cyclopropyl]methoxy]phenyl]-[4-(5-methyl-[1,3]oxazolo[4,5-b]pyridin-2-yl)piperazin-1-yl]methanone] | 10
Cc1ccc2oc(N3CCN(C(=O)c4ccc(OCCC(F)(F)F)c(-c5ccc(CO)cc5)c4)CC3)nc2n1 [Example 184, [3-[4-(hydroxymethyl)phenyl]-4-(3,3,3-trifluoropropoxy)phenyl]-[4-(5-methyl-[1,3]oxazolo[4,5-b]pyridin-2-yl)piperazin-1-yl]methanone] | 78
Cc1ccc2oc(N3CCN(C(=O)c4cc(OCC5(C(F)(F)F)CC5)cc(-c5ccc(CO)cc5)c4)CC3)nc2n1 [Example 185, [3-[4-(hydroxymethyl)phenyl]-5-[[1-(trifluoromethyl)cyclopropyl]methoxy]phenyl]-[4-(5-methyl-[1,3]oxazolo[4,5-b]pyridin-2-yl)piperazin-1-yl]methanone] | 302
Cc1ccc2oc(N3CCN(C(=O)c4ccc(-c5noc(CC(C)(C)C)n5)c(-c5ccc(CO)cc5)c4)CC3)nc2n1 [Example 186, [4-[5-(2,2-dimethylpropyl)-1,2,4-oxadiazol-3-yl]-3-[4-(hydroxymethyl)phenyl]phenyl]-[4-(5-methyl-[1,3]oxazolo[4,5-b]pyridin-2-yl)piperazin-1-yl]methanone] | 12
Cc1ccc2oc(N3CCN(C(=O)c4ccc(OCC5(C)CC5)c(-c5ccc(CO)cc5)c4)CC3)nc2n1 [Example 187, [3-[4-(hydroxymethyl)phenyl]-4-[(1-methylcyclopropyl)methoxy]phenyl]-[4-(5-methyl-[1,3]oxazolo[4,5-b]pyridin-2-yl)piperazin-1-yl]methanone] | 9
Cc1ccc2oc(N3CCN(C(=O)c4cc(OCC5(C)CC5)cc(-c5ccc(CO)cc5)c4)CC3)nc2n1 [Example 188, [3-[4-(hydroxymethyl)phenyl]-5-[(1-methylcyclopropyl)methoxy]phenyl]-[4-(5-methyl-[1,3]oxazolo[4,5-b]pyridin-2-yl)piperazin-1-yl]methanone] | 165
CC(C)(C)c1nc(-c2ccc(C(=O)N3CCN(c4nc5nc(C6CC6)ccc5o4)CC3)cc2)no1 [Example 189, (4-(5-(tert-butyl)-1,2,4-oxadiazol-3-yl)phenyl)(4-(5-cyclopropyloxazolo[4,5-b]pyridin-2-yl)piperazin-1-yl)methanone] | 2490
O=C(c1ccc(N2CC3(CCCO3)C2)cc1)N1CCN(c2nc3ncccc3o2)CC1 [Example 192, (4-(5-oxa-2-azaspiro[3.4]octan-2-yl)phenyl)(4-(oxazolo[4,5-b]pyridin-2-yl)piperazin-1-yl)methanone] | 4120
CC(OC1CN(c2ccc(C(=O)N3CCN(c4nc5ncccc5o4)CC3)cc2)C1)C(F)(F)F (centres unmarked) [Example 193, (4-(oxazolo[4,5-b]pyridin-2-yl)piperazin-1-yl)(4-(3-((1,1,1-trifluoropropan-2-yl)oxy)azetidin-1-yl)phenyl)methanone] | 355
Cc1ccc2oc(N3CCN(C(=O)c4ccc(N5CC6(CCCO6)C5)cc4)CC3)nc2n1 [Example 194, (4-(5-oxa-2-azaspiro[3.4]octan-2-yl)phenyl)(4-(5-methyloxazolo[4,5-b]pyridin-2-yl)piperazin-1-yl)methanone] | 486
Cc1ccc2oc(N3CCN(C(=O)c4ccc(N5CC(OC(C)C(F)(F)F)C5)cc4)CC3)nc2n1 (centres unmarked) [Example 195, (4-(5-methyloxazolo[4,5-b]pyridin-2-yl)piperazin-1-yl)(4-(3-((1,1,1-trifluoropropan-2-yl)oxy)azetidin-1-yl)phenyl)methanone] | 39
O=C(c1ccc(N2CC(Oc3ccccc3)C2)cc1)N1CCN(c2nc3ncccc3o2)CC1 [Example 196, (4-(oxazolo[4,5-b]pyridin-2-yl)piperazin-1-yl)(4-(3-phenoxyazetidin-1-yl)phenyl)methanone] | 441
COc1ccc2oc(N3CCN(C(=O)c4ccc(-c5noc(C(C)(C)C)n5)cc4)CC3)nc2n1 [Example 197, (4-(5-(tert-butyl)-1,2,4-oxadiazol-3-yl)phenyl)(4-(5-methoxyoxazolo[4,5-b]pyridin-2-yl)piperazin-1-yl)methanone] | 471
